According to patent EP0014981A2, “Medicaments and pharmaceutical compositions with cytostatic activity” (Henkel Kommanditgesellschaft auf Aktien, priority 1979, dated 1980):

Columns and labels:
Assay type in all cases: in vivo, Mäuse
Ependymoblastom = assay: Intracerebrally implanted ependymoblastoma in mice, survival; conditions: 40 mg/kg p.die, 9 days
Description: (§1) Die nachfolgenden Beispiele wurden durchgeführt nach Testvorschriften des National Cancer Institute Bethesda, Maryland 200014, veröffentlicht in "Cancer Chemotherapy Reports" Part. 3, Sept. '72, Vol. 3, Nr. 2. Als Wirksubstanz wurde verwendet α-Triglycidylisocyanurat (F 106° C) sowie β-Triglycidylisocyanurat (F 158 °C), beide mit 16,1 % Epoxidsauerstoffgehalt (Herstellung siehe US-PS 3,337,509).
(§2) Alle wäßrigen 1 %igen Injektionslösungen wurden unmittelbar vor der Applikation frisch hergestellt.
Bei einer Testgruppe von Mäusen wurde durch intracerebra1 mm^3 eines Gewebes von Ependymoblastom implantiert. Die mittlere Überlebensdauer bei der Kontrollgruppe be- trug 19,3 Tage.

Leukämie L 1210 = assay: Leukaemia L 1210 in mice, NCI protocol 1.100, survival; conditions: for Überlebende / ganze Gruppe, leukäm. M. / Überlebende / ganze Gruppe, Kontrollgruppe: after 30 days; for Überlebende / ganze Gruppe, Kontrollgruppe: control group
Description: as §1, §2
Bei Mäusen wurde gemäß Protokoll 1.100 (Seite 7 1.c.) Leukämie L 1210 durch i.p. Verabreichung von 0,1 ml verdünnter Erregerlösung entsprechend 10^5 Zellen erzeugt. Bei der Kontrollgruppe betrug die mittlere Überlebensdauer 8 Tage (m.s.t.).
B) Der Einfluß der Behandlungsplanung auf die therapeutische Wirksamkeit von α-TGI bei Tumor L 1210 nach 30 Tagen ist der nachfolgenden Tabelle I zu entnehmen.

[1] = Tolerated maximum daily dose in mice, i.p. aqueous solutions; conditions: clear toxic effects only at higher doses
Description: Im Tierexperiment hat sich die Verwendung von frisch hergestellten, wäßrigen Lösungen, die i.p. gegeben werden, als zweckmäßig erwiesen. Von α- beziehungsweise β-Triglycidylisocyanurat kann bei Mäusen die Maximaldosis p.die 100 mg/kg Maus betragen. Deutliche toxische Wirkungen treten erst bei höherer Dosierung auf. Als optimale Dosierung hat sich in vielen Fällen eine Gabe von 30 mg bis 60 mg/kg Maus während einer Applikationsdauer von 1 bis 9 Tagen bewährt.

Sarcom 180 = assay: Sarcoma 180 i.p. in mice, survival; conditions: 30 mg/kg i.p., days 1 to 9
Description: as §1, §2
Durch i.p-Verabfolgung von 10^6 Zellen pro Maus wurde das Sarcom 180 gesetzt. Die unbehandelte Kontrollgrüppe hatte eine mittlere überlebenszeit von 20, 2 Tagen.

[2] = test system: Tumorart P 388 (Leucämie); assay: Leukaemia P 388 in mice, NCI protocol 1 200, survival; conditions: for Heilung: % of animals
Description: as §1, §2
Bei Mäusen wurde gemäß Protokoll 1 200 (Seite 9 l.c.) die Tumorart P 388 (Leucämie) i.p. mit 10^6 Zellen/Maus ge- setzt. Die unbehandelten Tiere hatten eine mittlere Überlebensdauer von 10,5 Tagen.
Bei Mäusen wurde gemäß Protokoll 1 200 (Seite 9 1.c.) die Tumorart P 388 Leucämie i.p. mit 10^6 Zellen/Maus gesetzt. Die unbehandelten Tiere hatten eine mittlere überlebensdauer von 10 Tagen.

Melanom B16 = assay: Melanoma B 16 in mice, NCI instruction 1.300, survival; conditions: days 1 to 9
Description: as §1, §2
bei Mäusen wurde gemäß Anweisung 1.300 das 1/10 Homogenzt teranom B 16 jeweils 0,5 ml pro Maus i.p, verabfolgt gergl. S. 11 1,c.).
Die Kontrollgruppe hatte eine mittlere Überlebenszeit von 15,3 Tagen (m.s.t.).
Behandelte Gruppen erhielten vom 1. bis 9. Tag verschiedene Mengen α-TGI i.p. In der nachfolgenden Tabelle II ist die mittlere überlebensdauer und T/C in Ahhängigkeit der p.die gegebenen Menge Wirkstoff wiedergegeben.

Lungencarcinom (Lewis) = assay: Lewis lung carcinoma in mice, NCI protocol 1.400, inhibition of metastases; conditions: days 1 to 11, after 23 days
Description: as §1, §2
Gemäß Protokoll 1.400 (Seite 13 1.c.) wurden bei Mäusen Zellen, s.c. eines 1 mm^3 Stücks Lungencarcinom (Lewis) implantiert. Dann erfolgte vom 1. bis 11. Tag i.p. Verabfolgung von 40 mg/kg p.die an α-TGI bzw. 90 mg/kg p.die an β -TGI.

Coloncarcinom 38 = assay: Colon carcinoma 38 s.c. in mice, tumour weight; conditions: after 20 days (control 512 mg/Maus)
Description: as §1, §2
A)Gruppen von 10 Mäusen wurde etwa 1 mm^3 Coloncarcinom 38 s.c. implantiert. Das mittlere Turaorgetuicht betrug bei der unbehandelten Kontrollgruppe nach 20 Tagen: 512mg/Maus.

[3] = test system: gegenüber Cyclophosphamid (NSC 26271) resistente Leukämieform von P 388; assay: Cyclophosphamide-resistant P 388 leukaemia in mice, survival; conditions: 10 mice
Description: as §1, §2
Eine gegenüber Cyclophosphamid (NSC 26271) resistente Leukämieform von P 388 wurde mit α-T3I und Cyclophosphamid behandelt. Jede Gruppe bestand aus 10 Mäusen.

Coloncarcinom 26 = assay: Colon carcinoma 26 i.p. in mice, survival; conditions: for Mäuse lebend, 60 Tage / alle Mäuse lebend (day up to which): groups of 10 mice
Description: as §1, §2
8) Durch i.p. Inplantation (1 mm^3 Coloncarcinom 26) wurde bei Gruppen von jeweils 10 Mäusen ein Ca gesetzt Die Behandlung erfolgte durch i.p.-Verabfolgung von α-TGI. In der nachfolgenden Tabelle III sind die Ergebnisse in Abhängigkeit der jeweils am 1., 5. und 9. Tag applizierten Menge wiedergegeben.

[4] = 50 mg/kg p.die i.p., days 1 to 9
[5] = 50 mg/kg p.die i.p., days 1 to 9, group of 6 mice
[6] = 100 mg/kg p.die i.p., days 1 to 9

O=c1n(CC2CO2)c(=O)n(CC2CO2)c(=O)n1CC1CO1 (single isomer, unassigned) [α-TGI, α-Triglycidylisocyanurat]
T/C (Ependymoblastom): 165%
Überlebende / ganze Gruppe, leukäm. M. (Leukämie L 1210; 40 mg 9x i.p. (1.bis 9.Tag)): 8/10
Überlebende / ganze Gruppe, Kontrollgruppe (Leukämie L 1210; 40 mg 9x i.p. (1.bis 9.Tag)): 8/8
Überlebende / ganze Gruppe, leukäm. M. (Leukämie L 1210; 50 mg 5x i.p. (1.bis 5.Tag)): 5/10
Überlebende / ganze Gruppe, Kontrollgruppe (Leukämie L 1210; 50 mg 5x i.p. (1.bis 5.Tag)): 7/8
T/C (Leukämie L 1210; [4]): 297%
mittlere Überlebensdauer (Leukämie L 1210; [4]): 23,8 Tage
30 Tage erreichten (Leukämie L 1210; [5]): 3 Mäuse
Heilungsrate (Leukämie L 1210; [5]): ~50%
MTD ([1]; mouse, in vivo, ip, read-out: Maximaldosis p.die): 100 mg/kg/day
T/C (Sarcom 180): 183%
T/C ([2]; 25 mg/kg p.die, 9 doses): 196%
T/C ([2]; 50 mg/kg p.die i.p., 9 days): 200%
Heilung ([2]; 50 mg/kg p.die, 9 days): 17%
T/C, Verlängerungsrate (mittlere Lebenserwartung gegenüber der Kontrollgruppe) ([2]; 100 mg/kg p.die i.p., 9 days): 285%
behandelte Mäuse lebten länger als 40 Tage (als geheilt anzusehen) ([2]; 100 mg/kg p.die i.p., 9 days, fraction of treated mice): Die Hälfte
T/C (Melanom B16; 25 mg p.die i.p.): 227%
m. s. t. (Tage) (Melanom B16; 25 mg p.die i.p.): 36,0 Tage
T/C (Melanom B16; 50 mg p.die i.p.): 234%
m. s. t. (Tage) (Melanom B16; 50 mg p.die i.p.): 37,0 Tage
T/C (Melanom B16; 12,5 mg p.die i.p.): 188%
m. s. t. (Tage) (Melanom B16; 12,5 mg p.die i.p.): 29,8 Tage
Hemmung an Metastasen gegenüber der Kontrollgruppe (Lungencarcinom (Lewis); 40 mg/kg p.die i.p.): 92%
mittleres Tumorgewicht (Coloncarcinom 38; 50 mg/kg p.die on days 2, 9 and 16): 183 mg pro Maus
mittleres Tumorgewicht (Coloncarcinom 38; 50 mg/kg p.die on days 2 and 9): 153 mg pro Maus
Mäuse überlebten 60 Tage ([3]; 40 mg/kg, days 1 to 9): alle
T/C ([3]; 40 mg/kg, days 1 to 9): 478%
Mäuse lebend, 60 Tage (Coloncarcinom 26; 25 mg i.p. on days 1, 5 and 9): 6 von 10
alle Mäuse lebend (day up to which) (Coloncarcinom 26; 25 mg i.p. on days 1, 5 and 9): 25 Tage
Mäuse lebend, 60 Tage (Coloncarcinom 26; 50 mg i.p. on days 1, 5 and 9): 60 Tage noch 10 Mäuse lebend
Mäuse lebend, 60 Tage (Coloncarcinom 26; 100 mg i.p. on days 1, 5 and 9): 4 Mäuse
alle Mäuse lebend (day up to which) (Coloncarcinom 26; 100 mg i.p. on days 1, 5 and 9): 49 Tage

O=c1n(CC2CO2)c(=O)n(CC2CO2)c(=O)n1CC1CO1 (single isomer, unassigned) [β-TGI, β-Triglycidylisocyanurat]
T/C (Leukämie L 1210; [4]): 203%
mittlere Überlebensdauer (Leukämie L 1210; [4]): 16,3 Tage
T/C (Leukämie L 1210; [6]): 315%
mittlere Überlebensdauer (Leukämie L 1210; [6]): 25,2 Tage
Maximaldosis p.die [1]: 100 mg/kg Maus
T/C ([2]; 25 mg/kg p.die, 9 doses): 174%
T/C ([2]; 50 mg/kg p.die i.p., 9 days): 179%
Heilung ([2]; 50 mg/kg p.die, 9 days): 17%
T/C, Verlängerungsrate (mittlere Lebenserwartung gegenüber der Kontrollgruppe) ([2]; 100 mg/kg p.die i.p., 9 days): 228%
Heilung ([2]; 100 mg/kg p.die, 9 days): 17%
Hemmung an Metastasen gegenüber der Kontrollgruppe (Lungencarcinom (Lewis); 90 mg/kg p.die i.p.): 87%

O=P1(N(CCCl)CCCl)NCCCO1 (stereo not shown) [Cyclophosphamid, reference compound]
T/C ([3]; 180 mg/kg): 150%
Überlebenszeit der behandelten Mäuse ([3]; 180 mg/kg): < 30 Tage

O=c1[nH]cc(F)c(=O)[nH]1 [Fluoruracil, reference compound]
mittlere überlebensdauer (Coloncarcinom 26; positive comparison, dose not given, 10 mice): 55 Tage
Mäuse lebend am 60. Tag (Coloncarcinom 26; positive comparison, dose not given, of 10 mice): 2 Mäuse

CC1(Cn2c(=O)n(CC3(C)CO3)c(=O)n(CC3(C)CO3)c2=O)CO1 (stereo not shown) [Tri-(2-methylglycidyl)-isocyanurat]
T/C ([2]; 50 mg/kg p.die i.p., 9 days): 150%
T/C, Verlängerungsrate (mittlere Lebenserwartung gegenüber der Kontrollgruppe) ([2]; 100 mg/kg p.die i.p., 9 days): 170%
